Experimental data: PubChem BioAssay AID1259407 (Chemical Carcinogenesis Research Information System (CCRIS), 2018)
Calls of active or inactive are those of the source. How the calls were made is not given here.

Tested on: CCRIS mutagenicity, Ames/micronucleus/aberration tests
Test: CCRIS mutagenicity studies

For `Cn1c(N)nc2c3cccnc3ccc21`, the mutagenic call (End Point: IN VIVO MICRONUCLEUS, Test System: BONE MARROW POLYCHROMATIC ERYTHROCYTES, Species: MOUSE, Strain/Sex: BALB/C/MALE, Route: IP INJECTION) was “inactive; negative”, the mutagenic call (Test System: AMES SALMONELLA TYPHIMURIUM, Strain/Indicator: RAT, LIVER, MICROSOMES, Metabolic Activation: TA98, Method: PREINCUBATION) was “active; positive” and the mutagenic call (Test System: AMES SALMONELLA TYPHIMURIUM, Strain/Indicator: RAT, LIVER, S-9, Metabolic Activation: TA98, Method: PREINCUBATION) was “active; positive”. For the same compound, the mutagenic call (Test System: AMES SALMONELLA TYPHIMURIUM, Strain/Indicator: TA98 (1,8-DNP6), Metabolic Activation: RAT, LIVER, S-9, AROCLOR, Method: PREINCUBATION) was “inactive; negative”, the mutagenic call (Test System: AMES SALMONELLA TYPHIMURIUM, Strain/Indicator: TA98(1,8-DNP6), Metabolic Activation: RAT, LIVER, S-9, Method: STANDARD PLATE) was “inactive; negative” and the mutagenic call (Test System: AMES SALMONELLA TYPHIMURIUM, Strain/Indicator: TA98, Metabolic Activation: CYNOMOLGUS MONKEY, LIVER, MICROSOMES, Method: PREINCUBATION) was “active; positive”. The mutagenic call (Test System: AMES SALMONELLA TYPHIMURIUM, Strain/Indicator: TA98, Metabolic Activation: CYNOMOLOGUS MONKEY, LIVER, MICROSOMES, 2,3,7,8-TETRACHLORODIBENZO-P-DIOXIN, Method: PREINCUBATION) was “active; positive”, the mutagenic call (Test System: AMES SALMONELLA TYPHIMURIUM, Strain/Indicator: TA98, Metabolic Activation: CYNOMOLOGUS MONKEY, LIVER, MICROSOMES, 2-AMINO-3-METHYLIMIDAZO[4,5-F]QUINOLINE, Method: PREINCUBATION) was “active; positive” and the mutagenic call (Test System: AMES SALMONELLA TYPHIMURIUM, Strain/Indicator: TA98, Metabolic Activation: CYNOMOLOGUS MONKEY, LIVER, MICROSOMES, RIFAMPICIN, Method: PREINCUBATION) was “active; positive”. For the same compound, the mutagenic call (Test System: AMES SALMONELLA TYPHIMURIUM, Strain/Indicator: TA98, Metabolic Activation: HAMSTER, LIVER, S-9, AROCLOR 1254, Method: PREINCUBATION) was “active; positive”, the mutagenic call (Test System: AMES SALMONELLA TYPHIMURIUM, Strain/Indicator: TA98, Metabolic Activation: HAMSTER, LIVER, S-9, Method: PREINCUBATION) was “active; positive” and the mutagenic call (Test System: AMES SALMONELLA TYPHIMURIUM, Strain/Indicator: TA98, Metabolic Activation: HUMAN, BLOOD, CYTOSOL, Method: PREINCUBATION) was “active; positive”. For the same compound, the mutagenic call (Test System: AMES SALMONELLA TYPHIMURIUM, Strain/Indicator: TA98, Metabolic Activation: HUMAN, LIVER, MICROSOMES, Method: PREINCUBATION) was “active; positive”, the mutagenic call (Test System: AMES SALMONELLA TYPHIMURIUM, Strain/Indicator: TA98, Metabolic Activation: MONKEY, LIVER, MICROSOMES, Method: PREINCUBATION) was “active; positive” and the mutagenic call (Test System: AMES SALMONELLA TYPHIMURIUM, Strain/Indicator: TA98, Metabolic Activation: MONKEY, LIVER, S-9, Method: PREINCUBATION) was “active; positive”. For the same compound, the mutagenic call (Test System: AMES SALMONELLA TYPHIMURIUM, Strain/Indicator: TA98, Metabolic Activation: MOUSE, LIVER, HEPATOCYTES) was “active; positive”, the mutagenic call (Test System: AMES SALMONELLA TYPHIMURIUM, Strain/Indicator: TA98, Metabolic Activation: MOUSE, LIVER, HEPATOCYTES, 2,3,7,8-TETRACHLORODIBENZO-P-DIOXIN) was “active; positive” and the mutagenic call (Test System: AMES SALMONELLA TYPHIMURIUM, Strain/Indicator: TA98, Metabolic Activation: MOUSE, LIVER, MICROSOMES) was “active; positive”. The mutagenic call (Test System: AMES SALMONELLA TYPHIMURIUM, Strain/Indicator: TA98, Metabolic Activation: MOUSE, LIVER, MICROSOMES, 2,3,7,8-TETRACHLORODIBENZO-P-DIOXIN) was “active; positive”, the mutagenic call (Test System: AMES SALMONELLA TYPHIMURIUM, Strain/Indicator: TA98, Metabolic Activation: MOUSE, LIVER, MICROSOMES, TCDD, Method: STANDARD PLATE) was “active; positive” and the mutagenic call (Test System: AMES SALMONELLA TYPHIMURIUM, Strain/Indicator: TA98, Metabolic Activation: MOUSE, LIVER, MICROSOMES, Method: STANDARD PLATE) was “active; positive”. For the same compound, the mutagenic call (Test System: AMES SALMONELLA TYPHIMURIUM, Strain/Indicator: TA98, Metabolic Activation: MOUSE, LIVER, S-9, Method: PREINCUBATION) was “active; positive”, the mutagenic call (Test System: AMES SALMONELLA TYPHIMURIUM, Strain/Indicator: TA98, Metabolic Activation: NONE, Method: PREINCUBATION) was “inactive; negative” and the mutagenic call (Test System: AMES SALMONELLA TYPHIMURIUM, Strain/Indicator: TA98, Metabolic Activation: NONE, Method: STANDARD PLATE) was “inactive; negative”. The mutagenic call (Test System: AMES SALMONELLA TYPHIMURIUM, Strain/Indicator: TA98, Metabolic Activation: PATAS MONKEY, LIVER, MICROSOMES, Method: PREINCUBATION) was “active; positive”, the mutagenic call (Test System: AMES SALMONELLA TYPHIMURIUM, Strain/Indicator: TA98, Metabolic Activation: RAT LIVER, CYTOSOL, AROCLOR 1254, Method: STANDARD PLATE) was “inactive; negative” and the mutagenic call (Test System: AMES SALMONELLA TYPHIMURIUM, Strain/Indicator: TA98, Metabolic Activation: RAT LIVER, MICROSOMES, AROCLOR 1254, Method: STANDARD PLATE) was “active; positive”. The mutagenic call (Test System: AMES SALMONELLA TYPHIMURIUM, Strain/Indicator: TA98, Metabolic Activation: RAT, LIVER, HEPATOCYTES, AROCLOR 1254, Method: PREINCUBATION) was “active; positive”, the mutagenic call (Test System: AMES SALMONELLA TYPHIMURIUM, Strain/Indicator: TA98, Metabolic Activation: RAT, LIVER, HEPATOCYTES, Method: PREINCUBATION) was “active; positive” and the mutagenic call (Test System: AMES SALMONELLA TYPHIMURIUM, Strain/Indicator: TA98, Metabolic Activation: RAT, LIVER, MICROSOMES, Method: PREINCUBATION) was “active; positive”. For the same compound, the mutagenic call (Test System: AMES SALMONELLA TYPHIMURIUM, Strain/Indicator: TA98, Metabolic Activation: RAT, LIVER, S-9, 3-METHYLCHOLANTHRENE, Method: PREINCUBATION) was “active; positive”, the mutagenic call (Test System: AMES SALMONELLA TYPHIMURIUM, Strain/Indicator: TA98, Metabolic Activation: RAT, LIVER, S-9, AROCLOR, Method: PREINCUBATION) was “active; positive” and the mutagenic call (Test System: AMES SALMONELLA TYPHIMURIUM, Strain/Indicator: TA98, Metabolic Activation: RAT, LIVER, S-9, N-BENZYLIMIDAZOLE, Method: PREINCUBATION) was “active; positive”. For the same compound, the mutagenic call (Test System: AMES SALMONELLA TYPHIMURIUM, Strain/Indicator: TA98, Metabolic Activation: RAT, LIVER, S-9, PHENOBARBITONE, Method: PREINCUBATION) was “active; positive”, the mutagenic call (Test System: AMES SALMONELLA TYPHIMURIUM, Strain/Indicator: TA98, Metabolic Activation: RAT, LIVER, S-9, Method: STANDARD PLATE) was “active; positive” and the mutagenic call (Test System: AMES SALMONELLA TYPHIMURIUM, Strain/Indicator: TA98, Method: STANDARD PLATE) was “active; positive”. The mutagenic call (Test System: AMES SALMONELLA TYPHIMURIUM, Strain/Indicator: TA100, Metabolic Activation: NONE, Method: PREINCUBATION) was “inactive; negative”, the mutagenic call (Test System: AMES SALMONELLA TYPHIMURIUM, Strain/Indicator: TA100, Metabolic Activation: RAT, LIVER, S-9, AROCLOR 1254, Method: PREINCUBATION) was “active; positive” and the mutagenic call (Test System: AMES SALMONELLA TYPHIMURIUM, Strain/Indicator: YG1019, Metabolic Activation: RAT LIVER S-9, AROCLOR, Method: PREINCUBATION) was “active; positive”. The mutagenic call (Test System: AMES SALMONELLA TYPHIMURIUM, Strain/Indicator: YG1024, Metabolic Activation: RAT, LIVER, S-9, AROCLOR, Method: PREINCUBATION) was “active; positive”, the mutagenic call (Test System: CHINESE HAMSTER V-79, Strain/Indicator: V-79/6-THIOGUANINE, Metabolic Activation: RAT, LIVER, HEPATOCYTES, AROCLOR 1254) was “active; positive” and the mutagenic call (Test System: CHINESE HAMSTER V-79, Strain/Indicator: V-79/6-THIOGUANINE, Metabolic Activation: RAT, LIVER, S-9, AROCLOR 1254) was “inactive; negative”. For the same compound, the mutagenic call (Test System: E. COLI, Strain/Indicator: CC109, Metabolic Activation: RAT, LIVER, S-9, AROCLOR 1254, Method: STANDARD PLATE) was “active; positive”, the mutagenic call (Test System: E. COLI, Strain/Indicator: CC110, Metabolic Activation: RAT, LIVER, S-9, AROCLOR 1254, Method: STANDARD PLATE) was “active; positive” and the mutagenic call (Test System: E. COLI, Strain/Indicator: DJ3109, Metabolic Activation: RAT, LIVER, S-9, AROCLOR 1254, Method: STANDARD PLATE) was “active; positive”. For the same compound, the mutagenic call (Test System: E. COLI, Strain/Indicator: DJ3110, Metabolic Activation: RAT, LIVER, S-9, AROCLOR 1254, Method: STANDARD PLATE) was “active; positive”, the mutagenic call (Test System: E. COLI, Strain/Indicator: DJ3209, Metabolic Activation: RAT, LIVER, S-9, AROCLOR 1254, Method: STANDARD PLATE) was “active; positive” and the mutagenic call (Test System: E. COLI, Strain/Indicator: DJ3210, Metabolic Activation: RAT, LIVER, S-9, AROCLOR 1254, Method: STANDARD PLATE) was “active; positive”. For the same compound, the mutagenic call (Test System: UDS HAMSTER HEPATOCYTES, Strain/Indicator: THY INCORP, Metabolic Activation: NONE, Method: LIQUID SCINTILLATION COUNTING) was “active; positive”, the mutagenic call (Test System: UDS HUMAN HEPATOCYTES, Strain/Indicator: THY INCORP, Metabolic Activation: NONE, Method: AUTORADIOGRAPHY) was “active; positive” and the mutagenic call (Test System: UDS MOUSE HEPATOCYTES, Strain/Indicator: THY INCORP, Metabolic Activation: NONE, Method: AUTORADIOGRAPHY) was “active; positive”. The mutagenic call (Test System: UDS RAT HEPATOCYTES, Strain/Indicator: THY INCORP, Metabolic Activation: NONE, Method: AUTORADIOGRAPHY) was “inactive; negative” and the mutagenic call (Test System: UDS RAT HEPATOCYTES, Strain/Indicator: THY INCORP, Metabolic Activation: NONE, Method: LIQUID SCINTILLATION COUNTING) was “inactive; negative”.
